Experimental data taken from PMC7281280, “Is the Way to Fight Cancer Paved with Gold? Metal-Based Carbene Complexes with Multiple and Fascinating Biological Features” (Pharmaceuticals, 2020).

What was measured:
[1] = test system: tubulin; assay: In vitro tubulin-polymerization assay (turbidity at 350 nm); format: biochemical; settings: 10 µM
Protocol: Tubulin-polymerization inihibition was measured using in vitro Tubulin-Polymerization Assay Kit purchased fromEMD Millipore Corporation. Polymerization reactions occur in 70 µL final volumes, of which 60 µL is the 60 µM tubulin in 1 × PB-GTP and 10 µL is the test substance dissolved in 1 × PB-GTP. […] These reactives were combined in 96-well plate on ice. After the plate was transferred into the spectrophotometer pre-warmed at 37 °C and the turbidity variation was measured every 30 s at 350 nm for 90 min. The plate was shaked for 10 s before each measurement. Turbidity (absorbance) readings were used to calculate the extent of polymerization [% inhibition = (1−A350 sample/A350 control) × 100].
Figure 4 Tubulin-polymerization assay. […] Two positive control molecules, Paclitaxel and Vinblastine, were used as tubulin-stabilizing and tubulin-destabilizing agents, respectively. DMSO was used as a negative control. Assembly of tubulin into microtubules was determined by measuring the turbidity at 350 nm for 3600 s at 37 °C. All the compounds were used at a concentration of 10 μM.

[2] = test system: HeLa cells; assay: Immunofluorescence of microtubules, HeLa; format: cell-based, human; settings: at IC50 value, 24 h
Protocol: Cells were grown on glass coverslips in full media, then serum-deprived for 24 h and exposed to compounds for 24 h (concentration equal to its IC50 value). Then, the cells after PBS-washed, were fixed with cold methanol (15 min/−20 °C) and incubated with primary antibody, diluted in blocking solution (4 °C/overnight), as previously described. The mouse anti-β-Actin (69879) and the rabbit anti-β tubulin (9104) were purchased from Santa Cruz Biotechnology and used at 1:100 dilution. Coverslips were then washed 3 times with PBS, then fixed cells were incubated with the secondary antibody Alexa Fluor® 568 conjugate goat-anti-mouse and Alexa Fluor® 488 conjugate goat-anti-rabbit (1:500, Thermo Fisher Scientific, Waltham, MA, USA). Nuclei were stained using DAPI (Sigma–Aldrich, Mila, Italy) for 10 min at a concentration of 0.2 μg/mL then washed 3 times with PBS. Fluorescence was detected using a fluorescence microscope (Leica DM 6000). LAS-X software was used to acquire and process all images.
Figure 6 Immunofluorescence studies. HeLa cells were treated with AuL4, Vinblastine, Paclitaxel (used at their IC50 values) or with a vehicle (CTRL) for 24 h. After treatment, the cells were methanol fixed, incubated with primary and secondary antibodies, stained with DAPI and observed and imaged under the inverted fluorescence microscope at 20× magnification (see Materials and methods). […] Panels A: DAPI, excitation/emission wavelength 350 nm/460 nm; panels B: β-tubulin (Alexa Fluor® 488) excitation/emission wavelength 490 nm/515 nm; panels C show a merge. Representative fields are shown.

[3] = molecular target: T1, human topoisomerase I (hTopo I) (Homo sapiens, UniProt P11387); assay: Human topoisomerase I relaxation assay; format: biochemical; settings: 1 μM
T1 construct: purchased TopoGEN, Port Orange, FL, USA
T1 sequence (P11387 1-765): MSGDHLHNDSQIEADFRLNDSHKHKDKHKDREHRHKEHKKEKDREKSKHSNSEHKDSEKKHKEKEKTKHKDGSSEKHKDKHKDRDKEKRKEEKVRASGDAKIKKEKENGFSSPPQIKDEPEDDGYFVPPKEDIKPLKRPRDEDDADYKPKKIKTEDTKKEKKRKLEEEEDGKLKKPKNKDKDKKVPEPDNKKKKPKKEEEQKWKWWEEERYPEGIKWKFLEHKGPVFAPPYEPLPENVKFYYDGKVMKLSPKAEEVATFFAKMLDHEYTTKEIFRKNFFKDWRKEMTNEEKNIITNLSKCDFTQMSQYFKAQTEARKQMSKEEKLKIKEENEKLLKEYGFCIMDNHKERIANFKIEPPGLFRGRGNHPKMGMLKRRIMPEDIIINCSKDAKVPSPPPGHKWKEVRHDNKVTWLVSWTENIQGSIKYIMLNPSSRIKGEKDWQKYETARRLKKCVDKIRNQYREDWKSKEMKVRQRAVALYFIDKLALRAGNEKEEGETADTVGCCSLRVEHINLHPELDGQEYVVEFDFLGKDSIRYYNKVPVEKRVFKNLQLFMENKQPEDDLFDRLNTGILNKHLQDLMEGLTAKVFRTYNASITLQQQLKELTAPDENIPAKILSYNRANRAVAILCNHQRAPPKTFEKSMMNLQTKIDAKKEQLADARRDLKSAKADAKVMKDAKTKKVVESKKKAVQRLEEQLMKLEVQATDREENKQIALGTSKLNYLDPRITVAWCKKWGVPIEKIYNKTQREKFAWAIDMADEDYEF
Protocol: Topoisomerases are essential enzymes involved in DNA metabolism, because of their ability to cause temporary DNA strand breakage, and tightly involved, if overexpressed, in cancer development.
hTopo I relaxation assays have been performed in a final volume of […], as reported by Iacopetta et al., incubating […] of supercoiled plasmid pHOT1 in Tris-EDTA (TE) buffer (TopoGEN, Port Orange, FL, USA) with tested compounds and recombinant hTopo I (2 units) (TopoGEN, Port Orange, FL, USA) for 1h at 37 °C. The obtained solution has been loaded in a 1% agarose gel containing 1× Tris-acetate-EDTA (TAE) buffer without ethidium bromide (EB). Agarose gel has been stained using 1× TAE buffer with EB ([…]) for 30 min and after washed with distilled water for 15 min. At the end, it has been visualized by using a ultraviolet (UV) transilluminator. The experiment was performed in triplicate.
Figure 7 hTopoI assay.

[4] = molecular target: T2, human topoisomerase II (hTopo II) (Homo sapiens, UniProt P11388); assay: Human topoisomerase II decatenation assay; format: biochemical; settings: 1 μM
T2 construct: purchased topoGEN, Port Orange, FL, USA
T2 sequence (P11388 whole entry): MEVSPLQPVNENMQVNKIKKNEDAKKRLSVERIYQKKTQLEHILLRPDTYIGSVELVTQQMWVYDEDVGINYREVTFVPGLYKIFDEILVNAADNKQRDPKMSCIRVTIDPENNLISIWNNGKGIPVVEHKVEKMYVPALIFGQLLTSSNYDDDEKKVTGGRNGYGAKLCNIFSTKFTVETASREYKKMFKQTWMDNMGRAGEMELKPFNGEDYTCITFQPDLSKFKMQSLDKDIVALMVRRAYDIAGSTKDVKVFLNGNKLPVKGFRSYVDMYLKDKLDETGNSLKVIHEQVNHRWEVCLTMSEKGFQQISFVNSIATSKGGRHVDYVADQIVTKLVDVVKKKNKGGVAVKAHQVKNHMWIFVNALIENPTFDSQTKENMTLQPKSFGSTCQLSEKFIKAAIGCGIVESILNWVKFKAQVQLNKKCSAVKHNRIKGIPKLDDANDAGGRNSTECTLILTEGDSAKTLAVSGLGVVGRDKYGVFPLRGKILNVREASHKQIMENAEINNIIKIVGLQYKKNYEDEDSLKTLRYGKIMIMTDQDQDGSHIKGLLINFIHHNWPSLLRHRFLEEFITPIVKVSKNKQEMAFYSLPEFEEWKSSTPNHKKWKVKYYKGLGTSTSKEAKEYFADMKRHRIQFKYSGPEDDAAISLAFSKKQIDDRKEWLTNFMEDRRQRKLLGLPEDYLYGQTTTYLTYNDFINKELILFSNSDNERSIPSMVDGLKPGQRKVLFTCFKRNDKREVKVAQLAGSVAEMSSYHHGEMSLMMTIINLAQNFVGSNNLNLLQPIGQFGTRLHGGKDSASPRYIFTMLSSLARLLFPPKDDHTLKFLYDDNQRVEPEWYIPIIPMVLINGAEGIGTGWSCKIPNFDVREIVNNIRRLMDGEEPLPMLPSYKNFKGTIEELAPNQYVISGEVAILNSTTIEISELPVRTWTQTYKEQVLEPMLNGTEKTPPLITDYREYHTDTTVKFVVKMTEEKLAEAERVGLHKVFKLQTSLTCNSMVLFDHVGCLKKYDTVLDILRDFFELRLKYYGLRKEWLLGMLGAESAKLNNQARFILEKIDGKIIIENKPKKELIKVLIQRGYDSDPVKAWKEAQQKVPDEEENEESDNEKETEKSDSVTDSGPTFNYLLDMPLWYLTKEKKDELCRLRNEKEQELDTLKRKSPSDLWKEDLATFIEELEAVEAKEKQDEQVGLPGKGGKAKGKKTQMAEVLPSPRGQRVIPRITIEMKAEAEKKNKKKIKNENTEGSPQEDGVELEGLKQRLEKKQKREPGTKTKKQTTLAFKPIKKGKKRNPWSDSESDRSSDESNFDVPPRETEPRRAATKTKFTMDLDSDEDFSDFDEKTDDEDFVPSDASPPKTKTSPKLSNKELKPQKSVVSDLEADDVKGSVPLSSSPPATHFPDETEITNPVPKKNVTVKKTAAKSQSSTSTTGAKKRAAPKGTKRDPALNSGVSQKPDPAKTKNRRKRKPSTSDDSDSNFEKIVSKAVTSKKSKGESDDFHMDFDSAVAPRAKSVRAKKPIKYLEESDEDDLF
Protocol: Decatenated and linear kDNA (Figure 8, lanes 1 and 2) are used as markers.
hTopo II decatenation assays were performed in a final volume of […], as reported by Iacopetta et al., using […] of kinetoplast DNA (kDNA) (topoGEN, Port Orange, FL, USA), tested compounds and 3 units of hTopo II (topoGEN, Port Orange, FL, USA). The reaction products were loaded in an agarose gel with EB. At the end, the gel was washed with distilled water and analyzed using a UV transilluminator. The experiment was repeated three times.
Lane 1 and 2, decatenated and linear kDNA, respectively.

With C[n+]1c(Cl)c(Cl)n(C2CCCC2O)[c]1[Au-][c]1n(C2CCCC2O)c(Cl)c(Cl)[n+]1C.[Cl][Au-][Cl] (racemic) [AuL4, bis-[4,5-dichloro-(N-methyl-N’(cyclopentane-2ol)-imidazole-2-ylidine)gold(I)]^+[dichloro-gold]^−] the “effect on tubulin-polymerization reaction” value [1] was “seems not to hamper the tubulin-polymerization reaction”, the “final optical density value at 350 nm (OD350)” value ([1]; 37 °C, vehicle (DMSO) about 0.43) was “slightly higher than that of DMSO reaction” and the “effect on microtubule network, HeLa” value [2] was “paclitaxel-like behavior”. The “inhibition of hTopo I supercoil relaxing activity” value [3] was “totally inhibition” and the “inhibition of hTopo II decatenation activity” value [4] was “total blockade of hTopoII activity”.
